According to patent US20240368168A1, “SARM1 ENZYME ACTIVITY INHIBITOR AND APPLICATION THEREOF” (ARTIVILA BIOPHARMA, priority 2021, published 2024):

Molecular target: T1, dN-SARM1 protein (Homo sapiens, UniProt Q6SZW1)
T1 construct: the N-terminal mitochondrial localization signal peptide of SARM1 was removed
T1 sequence (Q6SZW1 28-724): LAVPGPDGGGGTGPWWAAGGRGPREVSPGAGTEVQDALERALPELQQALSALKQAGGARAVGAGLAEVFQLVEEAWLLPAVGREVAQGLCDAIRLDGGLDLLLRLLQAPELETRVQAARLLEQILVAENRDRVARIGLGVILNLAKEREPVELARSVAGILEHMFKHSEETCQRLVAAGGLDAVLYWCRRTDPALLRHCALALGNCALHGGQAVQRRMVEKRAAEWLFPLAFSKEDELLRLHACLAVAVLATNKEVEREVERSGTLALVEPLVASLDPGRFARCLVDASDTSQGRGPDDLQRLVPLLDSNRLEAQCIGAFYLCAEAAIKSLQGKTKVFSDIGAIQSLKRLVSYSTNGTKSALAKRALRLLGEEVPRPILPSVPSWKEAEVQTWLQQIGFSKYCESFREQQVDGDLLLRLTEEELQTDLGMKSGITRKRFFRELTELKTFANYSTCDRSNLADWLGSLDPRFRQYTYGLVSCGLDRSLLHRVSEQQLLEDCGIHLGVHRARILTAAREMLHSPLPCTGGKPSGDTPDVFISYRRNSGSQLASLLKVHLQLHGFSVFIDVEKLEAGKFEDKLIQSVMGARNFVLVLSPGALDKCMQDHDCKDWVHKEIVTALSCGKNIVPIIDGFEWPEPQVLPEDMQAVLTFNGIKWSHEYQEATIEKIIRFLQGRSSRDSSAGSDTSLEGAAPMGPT
Test: In vitro biochemical assay for inhibiting SARM1 enzymatic activity (IC50), PC6 fluorescence method
Conditions: 50 μM NAD, 50 μM PC6, 50 μM NMN activator
Method: 200 μM compound was first added to a solution of 0.05 μg/ml dN-SARM1 in 50 mM Tris-HCl (pH 7.5). Half of the mixture was added to an equal volume of a solution of 0.05 μg/ml dN-SARM1 in 50 mM Tris-HCl (pH 7.5) and mixed. The drug was diluted 6 times in this manner, with the final concentrations being 200, 100, 50, 25, 12.5, 6.25, 3.125 μM, or 200, 50, 12.5, 3.125, 0.78, 0.195, 0.049 μM, respectively. The protein without inhibitors added, being used as control group, was incubated at room temperature for 10 minutes.
50 μM NAD, 50 μM PC6 as substrate and 50 μM NMN as activator were added to the dN-SARM1 protein incubated with the inhibitor and reacted for 30 minutes at room temperature. The concentration of each component was the final concentration in the reaction system.
During the reaction, PC6 fluorescence spectrum dynamics were detected by a microplate reader, wherein the excitation wavelength and emission wavelength for detection were 390 nm and 520 nm, respectively. Finally, the reaction rate was used to express the activity of the protein, and the half inhibitory concentration was calculated. The higher the reaction rate, the stronger the protein activity, and the lower the inhibitory efficiency of the compound.
The dose curve of compounds inhibiting SARM1 enzymatic activity was determined using the above method.

| Structure (SMILES) | IC50 [nM] |
| --- | --- |
| CN(C)CCN1Cc2c(cccc2-c2cnc3ccc(N(C)C(=O)OC(C)(C)C)cn23)C1=O [Compound 291] | 1000 to 10000 |
| CN(C(=O)OC(C)(C)C)c1ccc2ncc(C3CCCc4ncccc43)n2c1 (stereo not drawn) [Compound 311] | < 1000 |
| CC(C)(C)OC(=O)N1CCOCCN(C(=O)OC(C)(C)C)S(=O)(=O)c2cccc(c2)-c2cnc3ccc1cn23 [Compound 80, di-tert-butyl(E)-7-oxa-3-thio-4,10-diaza-1(3,6)-imidazol[1,2-a]pyridin-2(1,3)-phenylcyclodecane-4,10-dicarboxylate 3,3-dioxide] | 1000 to 10000 |
| CN(C(=O)OC(C)(C)C)c1ccc2ncc(-c3cccc(S(N)(=O)=O)c3)n2c1 [Compound 61, tert-butyl methyl (3-(3-sulfamoylphenyl)imidazo[1,2-a]pyridin-6-yl)carbamate] | 1000 to 10000 |
| CC(=O)N(C)c1ccc2ncc(-c3cccc(C(=O)NC4CCOCC4)c3)n2c1 [Compound 309] | 1000 to 10000 |
| CNc1ccc2ncc(-c3ccccc3C(=O)NC3CCOCC3)n2c1 [Compound 177] | 1000 to 10000 |
| CNC(=O)c1ccccc1-c1cnc2ccc(NC)cn12 [Compound 176] | 1000 to 10000 |
| NS(=O)(=O)c1cccc(-c2cnc3ccc(N[C@@H]4CCCNC4)cn23)c1 [Compound 89, (R)-3-(6-(piperidin-3-ylamino)imidazo[1,2-a]pyridin-3-yl)benzenesulfonamide] | < 1000 |
| CN(C(=O)C(C)(C)C)c1ccc2ncc(-c3cccc(N)c3)n2c1 [Compound 302] | 1000 to 10000 |
| Ic1cnc2ccc(-n3cccc3)cn12 [Compound 203] | < 1000 |
| CNc1ccc2ncc(-c3cccc(-n4cccc4)c3)n2c1 [Compound 200] | 1000 to 10000 |
| CN(C(=O)OC(C)(C)C)c1ccc2ncc(-c3cncc4[nH]cc(I)c34)n2c1 [Compound 208, tert-butyl (3-(3-iodo-1H-pyrrolo[2,3-c]pyridin-4-yl)imidazo[1,2-a]pyridin-6-yl)(methyl) carbamate] | 1000 to 10000 |
| CNc1ccc2ncc(-c3cccc(CNC(=O)C4CCOCC4)c3)n2c1 [Compound 242] | < 1000 |
| CN(C(=O)OC(C)(C)C)c1ccc2ncc(-c3cccc(-n4cccn4)c3)n2c1 [Compound 178] | < 1000 |
| CNc1ccc2ncc(-c3cccc4c3CN(CCOC)C4=O)n2c1 [Compound 290] | 1000 to 10000 |
| CNc1ccc2ncc(C3CCCCC3)n2c1 [Compound 85, 3-cyclohexyl-N-methylimidazo[1,2-a]pyridin-6-amine] | 1000 to 10000 |
| COC(=O)c1cccc(-c2cnc3ccc(N(C)C(C)=O)cn23)c1 [Compound 308] | 1000 to 10000 |
| COc1ccc2ncc(Nc3ccccc3)n2c1 [Compound 82, 6-methoxy-N-phenylimidazo[1,2-a]pyridin-3-amine] | 1000 to 10000 |
| CNc1ccc2ncc(-c3cccc4c3C(=O)NC4)n2c1 [Compound 165] | < 1000 |

| Structure (SMILES) | IC50 [nM] |
| --- | --- |
| CN(C(=O)OC(C)(C)C)c1ccc2ncc(-c3ccccc3C(=O)NC3CCOCC3)n2c1 [Compound 175] | < 1000 |
| CNc1ccc2ncc(-c3cccnc3)n2c1 [Compound 73] | 1000 to 10000 |
| CNc1ccc2ncc(-c3ccnc4[nH]ccc34)n2c1 [Compound 166] | < 1000 |
| CNc1ccc2ncc(-c3ccnnc3)n2c1 [Compound 186] | 1000 to 10000 |
| COc1cccc(-c2cnc3ccc(N(C)C(=O)OC(C)(C)C)cn23)n1 [Compound 16] | 1000 to 10000 |
| CN(C(=O)C1CC1)c1ccc2ncc(I)n2c1 [Compound 305] | < 1000 |
| COCCOCCNc1cccc(-c2cnc3ccc(N4CCOCC4)cn23)c1 [Compound 229] | 1000 to 10000 |
| c1cc(-c2cnc3ccc(N4CCOCC4)cn23)cc(N2CCOCC2)c1 [Compound 226] | 1000 to 10000 |
| CNc1ccc2ncc(-c3cncc4[nH]ccc34)n2c1 [Compound 258] | < 1000 |
| COCCNc1cccc(-c2cnc3ccc(N4CCOCC4)cn23)c1 [Compound 232] | 1000 to 10000 |
| CC(C)(C)C(=O)Nc1ccc2ncc(I)n2c1 [Compound 304] | 1000 to 10000 |
| CNc1ccc2ncc(-c3ccncc3F)n2c1 [Compound 261] | < 1000 |
| CNc1ccc2ncc(-c3cccc4c3CN(CCN(C)C)C4=O)n2c1 [Compound 292] | 1000 to 10000 |
| CNc1ccc2ncc(-c3ccc(OC)cc3)n2c1 [Compound 72] | 1000 to 10000 |
| O=C(Nc1cccc(-c2cnc3ccc(-n4cccn4)cn23)c1)C1CCOCC1 [Compound 207] | 1000 to 10000 |
| CNc1ccc2ncc(-c3cccc(S(=O)(=O)NC)c3)n2c1 [Compound 60, N-methyl-3-(6-(methylamino)imidazo[1,2-a]pyridin-3-yl)benzenesulfonamide] | 1000 to 10000 |
| O=C(Cc1ccc(Cl)cc1)Nc1ccn2c(-c3ccncc3)cnc2c1 [Compound 222] | 1000 to 10000 |
| COCCOCCNC(=O)c1cccc(-c2cnc3ccc(N(C)C(C)=O)cn23)c1 [Compound 310] | 1000 to 10000 |
| CN(C(=O)OC(C)(C)C)c1ccc2ncc(-c3ccc4[nH]ccc4c3)n2c1 [Compound 199] | 1000 to 10000 |

| Structure (SMILES) | IC50 [nM] |
| --- | --- |
| CN(C(=O)OC(C)(C)C)c1ccc2ncc(-c3cncc4ccccc34)n2c1 [Compound 268] | < 1000 |
| CN(C(=O)OC(C)(C)C)c1ccc2ncc(-c3ccc4c(c3)CNC4=O)n2c1 [Compound 265] | < 1000 |
| CN(C(=O)OC(C)(C)C)c1ccc2ncc(-c3ccnc(NC(=O)c4ccccc4)c3)n2c1 [Compound 182] | 1000 to 10000 |
| CNc1ccc2ncc(-c3ccccc3C(C)NC(=O)C3CCOCC3)n2c1 (stereo not drawn) [Compound 191] | 1000 to 10000 |
| CC(=O)N(C)c1ccc2ncc(-c3cccs3)n2c1 [Compound 43] | 1000 to 10000 |
| CN(C(=O)OC(C)(C)C)c1ccc2ncc(-c3cccc4cnccc34)n2c1 [Compound 263] | < 1000 |
| CNc1ccc2ncc(-c3ccc4[nH]ccc4n3)n2c1 [Compound 197] | 1000 to 10000 |
| CNc1ccc2ncc(-c3cccc(S(N)(=O)=O)c3)n2c1 [Compound 62, 3-(6-(methylamino)imidazo[1,2-a]pyridin-3-yl) benzenesulfonamide] | 1000 to 10000 |
| Brc1cnc2ccc(NC3CCOC3)cn12 (stereo not drawn) [Compound 86, 3-bromo-N-(tetrahydrofuran-3-yl)imidazo[1,2-a]pyridin-6-amine] | < 1000 |
| CN(C(=O)OC(C)(C)C)c1ccc2ncc(-c3cccc4cnn(C)c34)n2c1 [Compound 267] | < 1000 |
| CNc1ccc2ncc(-c3cccc4c3CNC4=O)n2c1 [Compound 257] | < 1000 |
| CNc1ccc2ncc(-c3ccc4cc[nH]c4n3)n2c1 [Compound 192] | 1000 to 10000 |
| COc1ccc2ncc(-c3cccc(S(N)(=O)=O)c3)n2c1 [Compound 5] | 1000 to 10000 |
| CNc1ccc2ncc(-c3ccc4c(c3)CNC4=O)n2c1 [Compound 266] | 1000 to 10000 |
| CN(C(=O)OC(C)(C)C)c1ccc2ncc(-c3cc4ccn(C)c4cn3)n2c1 [Compound 295] | 1000 to 10000 |
| O=S1(=O)NCCOCCNc2ccc3ncc(n3c2)-c2cccc1c2 [Compound 81, (E)-7-oxa-3-thia-4,10-diaza-1(3,6)-imidazo[1,2-a]pyridine-2(1,3)-benzocyclodecane 3,3-dioxide] | 1000 to 10000 |
| CN(C(=O)OC(C)(C)C)c1ccc2ncc(-c3cccc4nccn34)n2c1 [Compound 173] | 1000 to 10000 |
| CN(C(=O)OC(C)(C)C)c1ccc2ncc(-c3ccc4[nH]ccc4n3)n2c1 [Compound 196] | 1000 to 10000 |
| CNc1ccc2ncc(-c3cccc4cnccc34)n2c1 [Compound 264] | < 1000 |
